The GI50 is the concentration giving 50% growth inhibition. A word on the TGI: it is the concentration at which net growth stops.

Where “and” joins values, the source holds several entries; their conditions need not be identical. Equal values may be shown once.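 Cultured in 96-well plates, cells were exposed to test compound for 48 hours across five concentrations. Abbreviation: GI50, concentration required for 50% inhibition of growth. Definition used: TGI = concentration required for complete inhibition of growth.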

For the first experiment, the system named is SK-MEL-2 melanoma. Nature of the experiment: DTP human tumour cell line panel, 48 h.
With `O=C(COc1ccc(/C=C2\Oc3ccccc3C2=O)cc1)Nc1nc2ccccc2s1`, the GI50 was 14.6 µM and the total growth inhibition concentration (TGI) was greater than 68.6 µM.

For `CCc1cccc(CC)c1NC(=O)/C(Cl)=C(/Cl)C(=O)O`, the TGI is greater than 100 µM.

As for `OCC1CC[N-]CC1.OCC1CC[N-]CC1.[Cl][Pt+2]([Cl])([Cl])[Cl]`, the GI50 was 27 µM and the TGI turned out to be 67.3 µM.

In the case of `CC(=O)OCC(=O)[C@@]1(O)CC[C@H]2[C@@H]3C[C@H](C)C4=CC(=O)C=C[C@]4(C)[C@@]3(F)[C@@H](O)C[C@@]21C`, the concentration for total growth inhibition (TGI) is greater than 100 µM.

As for `OCCCCC#Cc1ccccc1C#Cc1cccc(C(F)(F)F)c1`, the GI50 is 19.7 µM and the TGI came to 42.1 µM.

Molecule `COc1cc(/C=C/c2csnn2)cc(OC)c1OC` gave a TGI greater than 100 µM.

Turning to `CCCCCC/C=C\CCCCCCCCC(=O)c1cccc(OC)c1OC`, the TGI is greater than 100 µM.

Molecule `N#CC1CC(c2ccccc2)Nc2cc(Cl)ccc2N1` (stereo unspecified) displayed a TGI greater than 89.2 µM.

Another experiment has as its system SR leukemia. As to the kind of experiment: DTP human tumour cell line panel, 48 h.
In the case of `[O]=[V]([OH])([OH])[OH]`, the GI50 was 36.3 µM and the TGI is greater than 100 µM.

In the case of `CNCc1ccc(-c2cc(-c3nc(-c4ccc(S(=O)(=O)C(C)C)cc4)cnc3N)on2)cc1`, the GI50 is 0.132 µM and the concentration for total growth inhibition (TGI) turned out to be 2.84 µM.

For the molecule `Cc1cc(Cl)nc(N(CCNc2ccnc3cc(Cl)ccc23)Cc2ccco2)n1`, the GI50 was 1.81 µM and the TGI was found to be 4.39 µM.

In the case of `S=C1SCN(Cc2ccccc2)CN1Cc1ccco1`, the GI50 is 1.87 µM and the TGI was greater than 100 µM.

In the case of `COc1ccccc1CNCCN1C(=O)c2ccc3c4c(ccc(c24)C1=O)C(=O)N(CCNCc1ccccc1OC)C3=O`, the concentration for 50% growth inhibition (GI50) was 0.178 µM and the TGI worked out at 0.581 µM.

On to `CCCCCCCCCCCC[C@@H](O)[C@H]1CC[C@H]([C@H](O)CC[C@H](O)[C@@H]2CC[C@@H](CCCCCCCC3=C[C@H](C)OC3=O)O2)O1`, for which the GI50 is greater than 50 µM and the TGI is greater than 50 µM.

On to `O=C(c1cccs1)c1c(C(F)(F)F)n([O-])c2cc(Cl)c(Cl)cc2[n+]1=O`, for which the GI50 is less than 0.0214 µM.

Consider `CSc1nc2nc(-c3ccccc3)c(C)c-2c2n1C(C)C(=O)N2` (stereo unspecified), for which the GI50 is 39.3 µM and the TGI is greater than 100 µM.

As for `COc1cc(-c2nccc3[nH]c(-c4ccc5cc[nH]c5c4)nc23)cc(OC)c1OC`, the GI50 is less than 0.01 µM and the concentration for total growth inhibition (TGI) was 11.9 µM.

In the case of `COc1cc2nnc3c4cccnc4[nH]c3c2cc1OC`, the GI50 is 0.117 µM and 0.0395 µM.

Molecule `OC(c1ccccc1Br)(c1ccccc1Br)C(F)(F)F` had a TGI of 45.9 µM.

Regarding `O=C(COc1ccc(/C=C2\Oc3ccccc3C2=O)cc1)Nc1nc2ccccc2s1`, the GI50 was 2.38 µM and the TGI was 8.57 µM.

Turning to `CCc1cccc(CC)c1NC(=O)/C(Cl)=C(/Cl)C(=O)O`, the concentration for total growth inhibition (TGI) was greater than 73.6 µM.

On to `OCC1CC[N-]CC1.OCC1CC[N-]CC1.[Cl][Pt+2]([Cl])([Cl])[Cl]`, for which the GI50 is 8.08 µM.

In turn, `CC(=O)OCC(=O)[C@@]1(O)CC[C@H]2[C@@H]3C[C@H](C)C4=CC(=O)C=C[C@]4(C)[C@@]3(F)[C@@H](O)C[C@@]21C` had a TGI greater than 100 µM.

For `OCCCCC#Cc1ccccc1C#Cc1cccc(C(F)(F)F)c1`, the GI50 is 18.3 µM and the TGI is greater than 100 µM.

With `COc1cc(/C=C/c2csnn2)cc(OC)c1OC`, the TGI was greater than 100 µM.

The molecule `CCCCCC/C=C\CCCCCCCCC(=O)c1cccc(OC)c1OC` yielded a TGI greater than 100 µM.

In the case of `N#CC1CC(c2ccccc2)Nc2cc(Cl)ccc2N1` (stereo unspecified), the TGI is 59.8 µM. This lies in the double-digit micromolar range.

The next experiment has as its system SW-620 colon. Nature of the experiment: DTP human tumour cell line panel, 48 h.
Regarding `[O]=[V]([OH])([OH])[OH]`, the GI50 is greater than 100 µM and the TGI is greater than 100 µM.

Regarding `CNCc1ccc(-c2cc(-c3nc(-c4ccc(S(=O)(=O)C(C)C)cc4)cnc3N)on2)cc1`, the GI50 is 1.43 µM and the TGI stood at 3.78 µM.

As to `Cc1cc(Cl)nc(N(CCNc2ccnc3cc(Cl)ccc23)Cc2ccco2)n1`, the GI50 was 1.85 µM and the total growth inhibition concentration (TGI) amounted to 4.45 µM.

Regarding `S=C1SCN(Cc2ccccc2)CN1Cc1ccco1`, the GI50 was 4.52 µM and the TGI amounted to 18.1 µM.

For `COc1ccccc1CNCCN1C(=O)c2ccc3c4c(ccc(c24)C1=O)C(=O)N(CCNCc1ccccc1OC)C3=O`, the GI50 is 0.235 µM and the TGI came to 0.591 µM.

On to `CCCCCCCCCCCC[C@@H](O)[C@H]1CC[C@H]([C@H](O)CC[C@H](O)[C@@H]2CC[C@@H](CCCCCCCC3=C[C@H](C)OC3=O)O2)O1`, for which the GI50 is 3.23 µM and the total growth inhibition concentration (TGI) was greater than 50 µM.

Take `O=C(c1cccs1)c1c(C(F)(F)F)n([O-])c2cc(Cl)c(Cl)cc2[n+]1=O`: the GI50 was 0.0876 µM and the TGI turned out to be 0.865 µM.

Take `CSc1nc2nc(-c3ccccc3)c(C)c-2c2n1C(C)C(=O)N2` (stereo unspecified): the GI50 is 58.8 µM and the TGI was greater than 100 µM.

Regarding `COc1cc(-c2nccc3[nH]c(-c4ccc5cc[nH]c5c4)nc23)cc(OC)c1OC`, the concentration for 50% growth inhibition (GI50) was less than 0.01 µM and the TGI is 1.6 µM.

`COc1cc2nnc3c4cccnc4[nH]c3c2cc1OC`: the GI50 was 0.961 µM and 0.444 µM; the TGI was 50 µM and > 100 µM.

Molecule `OC(c1ccccc1Br)(c1ccccc1Br)C(F)(F)F` returned a TGI of 36.2 µM. In other words, the double-digit micromolar range.

Turning to `O=C(COc1ccc(/C=C2\Oc3ccccc3C2=O)cc1)Nc1nc2ccccc2s1`, the GI50 was 24.2 µM and the TGI was greater than 100 µM.

Molecule `CCc1cccc(CC)c1NC(=O)/C(Cl)=C(/Cl)C(=O)O` had a TGI of 46.8 µM.

`OCC1CC[N-]CC1.OCC1CC[N-]CC1.[Cl][Pt+2]([Cl])([Cl])[Cl]`: the GI50 was 23 µM.

The molecule `CC(=O)OCC(=O)[C@@]1(O)CC[C@H]2[C@@H]3C[C@H](C)C4=CC(=O)C=C[C@]4(C)[C@@]3(F)[C@@H](O)C[C@@]21C` had a total growth inhibition concentration (TGI) greater than 100 µM.

For the molecule `OCCCCC#Cc1ccccc1C#Cc1cccc(C(F)(F)F)c1`, the GI50 was 16.9 µM and the TGI is 37 µM.

On to `COc1cc(/C=C/c2csnn2)cc(OC)c1OC`, for which the TGI was greater than 100 µM.

In turn, `CCCCCC/C=C\CCCCCCCCC(=O)c1cccc(OC)c1OC` displayed a TGI greater than 100 µM.

In turn, `N#CC1CC(c2ccccc2)Nc2cc(Cl)ccc2N1` (stereo unspecified) showed a TGI greater than 100 µM.

Source of the values: PubChem BioAssay (NCI).
